Source: patent publication US10278394B2, “Compounds derived from herbicidal carboxylic acids and tetraalkylammonium or (arylalkyl)trialkylammonium hydroxides” (Dow AgroSciences LLC, priority 2007, dated 2019)

Tested on: grapes (Vitis labrusca L.)
Assay: Volatility evaluation: injury to grapes from vapor exposure to treated wheat
Type: in vivo
Conditions: wheat sprayed at 11200 g ae/ha; 24 hour vapor exposure at 40° C.; evaluated 7 days after exposure
From the text: Method for evaluating the volatility of herbicide standards and the compounds derived from combining a carboxylic acid herbicide with either a tetraalkylammonium or an (arylalkyl)trialkylammonium hydroxide.
Four pots of wheat (Triticum aestivum L.) grown in 4 inch square pots were sprayed at 11200 g ae/ha with each of the different forms of 2,4-D. Treatments were applied with a tracksprayer manufactured by Allen Machine Works. The sprayer utilized an 8002E spray nozzle, spray pressure of 262 kPa pressure and speed of 1.5 mph (2.4 km/h) to deliver 187 L/Ha. The nozzle height was 46 cm above the plant canopy. The growth stage of the wheat was 1 to 2 leaf. The wheat plants were allowed to thoroughly dry to ensure that none of the spray solution was present when they were moved into a clean pot flat. A known sensitive species, grapes (Vitis labrusca L.) were placed at the opposite end of the flat. All of the pots were covered with a humidome with small ½ inch (1.27 cm) diameter holes cut into the end where the wheat was placed and a small box fan powered with a battery in the other end to pull air across the treated wheat plants and over the top of grapes. […] A 24 hour exposure period was used after which the sensitive plants were then removed and placed in the greenhouse and evaluated for injury from vapor exposure to the treatments.

CNC.COc1c(Cl)ccc(Cl)c1C(=O)O [Dicamba DMA]
% Injury to grapes from vapor exposure: 70%
